Results: patent publication US10150728B2, “Alkylene derivatives” (Shionogi & Co., Ltd., priority 2013, dated 2018)

The compounds below were run against recombinant human ACC2 (Homo sapiens (Human), UniProt O00763) (assay: Measurement of inhibitory activity on human ACC2 (MALDI-TOF MS, acetyl CoA to malonyl CoA conversion)). Conditions: Table 154.
Sequence of recombinant human ACC2 (O00763 27-2458): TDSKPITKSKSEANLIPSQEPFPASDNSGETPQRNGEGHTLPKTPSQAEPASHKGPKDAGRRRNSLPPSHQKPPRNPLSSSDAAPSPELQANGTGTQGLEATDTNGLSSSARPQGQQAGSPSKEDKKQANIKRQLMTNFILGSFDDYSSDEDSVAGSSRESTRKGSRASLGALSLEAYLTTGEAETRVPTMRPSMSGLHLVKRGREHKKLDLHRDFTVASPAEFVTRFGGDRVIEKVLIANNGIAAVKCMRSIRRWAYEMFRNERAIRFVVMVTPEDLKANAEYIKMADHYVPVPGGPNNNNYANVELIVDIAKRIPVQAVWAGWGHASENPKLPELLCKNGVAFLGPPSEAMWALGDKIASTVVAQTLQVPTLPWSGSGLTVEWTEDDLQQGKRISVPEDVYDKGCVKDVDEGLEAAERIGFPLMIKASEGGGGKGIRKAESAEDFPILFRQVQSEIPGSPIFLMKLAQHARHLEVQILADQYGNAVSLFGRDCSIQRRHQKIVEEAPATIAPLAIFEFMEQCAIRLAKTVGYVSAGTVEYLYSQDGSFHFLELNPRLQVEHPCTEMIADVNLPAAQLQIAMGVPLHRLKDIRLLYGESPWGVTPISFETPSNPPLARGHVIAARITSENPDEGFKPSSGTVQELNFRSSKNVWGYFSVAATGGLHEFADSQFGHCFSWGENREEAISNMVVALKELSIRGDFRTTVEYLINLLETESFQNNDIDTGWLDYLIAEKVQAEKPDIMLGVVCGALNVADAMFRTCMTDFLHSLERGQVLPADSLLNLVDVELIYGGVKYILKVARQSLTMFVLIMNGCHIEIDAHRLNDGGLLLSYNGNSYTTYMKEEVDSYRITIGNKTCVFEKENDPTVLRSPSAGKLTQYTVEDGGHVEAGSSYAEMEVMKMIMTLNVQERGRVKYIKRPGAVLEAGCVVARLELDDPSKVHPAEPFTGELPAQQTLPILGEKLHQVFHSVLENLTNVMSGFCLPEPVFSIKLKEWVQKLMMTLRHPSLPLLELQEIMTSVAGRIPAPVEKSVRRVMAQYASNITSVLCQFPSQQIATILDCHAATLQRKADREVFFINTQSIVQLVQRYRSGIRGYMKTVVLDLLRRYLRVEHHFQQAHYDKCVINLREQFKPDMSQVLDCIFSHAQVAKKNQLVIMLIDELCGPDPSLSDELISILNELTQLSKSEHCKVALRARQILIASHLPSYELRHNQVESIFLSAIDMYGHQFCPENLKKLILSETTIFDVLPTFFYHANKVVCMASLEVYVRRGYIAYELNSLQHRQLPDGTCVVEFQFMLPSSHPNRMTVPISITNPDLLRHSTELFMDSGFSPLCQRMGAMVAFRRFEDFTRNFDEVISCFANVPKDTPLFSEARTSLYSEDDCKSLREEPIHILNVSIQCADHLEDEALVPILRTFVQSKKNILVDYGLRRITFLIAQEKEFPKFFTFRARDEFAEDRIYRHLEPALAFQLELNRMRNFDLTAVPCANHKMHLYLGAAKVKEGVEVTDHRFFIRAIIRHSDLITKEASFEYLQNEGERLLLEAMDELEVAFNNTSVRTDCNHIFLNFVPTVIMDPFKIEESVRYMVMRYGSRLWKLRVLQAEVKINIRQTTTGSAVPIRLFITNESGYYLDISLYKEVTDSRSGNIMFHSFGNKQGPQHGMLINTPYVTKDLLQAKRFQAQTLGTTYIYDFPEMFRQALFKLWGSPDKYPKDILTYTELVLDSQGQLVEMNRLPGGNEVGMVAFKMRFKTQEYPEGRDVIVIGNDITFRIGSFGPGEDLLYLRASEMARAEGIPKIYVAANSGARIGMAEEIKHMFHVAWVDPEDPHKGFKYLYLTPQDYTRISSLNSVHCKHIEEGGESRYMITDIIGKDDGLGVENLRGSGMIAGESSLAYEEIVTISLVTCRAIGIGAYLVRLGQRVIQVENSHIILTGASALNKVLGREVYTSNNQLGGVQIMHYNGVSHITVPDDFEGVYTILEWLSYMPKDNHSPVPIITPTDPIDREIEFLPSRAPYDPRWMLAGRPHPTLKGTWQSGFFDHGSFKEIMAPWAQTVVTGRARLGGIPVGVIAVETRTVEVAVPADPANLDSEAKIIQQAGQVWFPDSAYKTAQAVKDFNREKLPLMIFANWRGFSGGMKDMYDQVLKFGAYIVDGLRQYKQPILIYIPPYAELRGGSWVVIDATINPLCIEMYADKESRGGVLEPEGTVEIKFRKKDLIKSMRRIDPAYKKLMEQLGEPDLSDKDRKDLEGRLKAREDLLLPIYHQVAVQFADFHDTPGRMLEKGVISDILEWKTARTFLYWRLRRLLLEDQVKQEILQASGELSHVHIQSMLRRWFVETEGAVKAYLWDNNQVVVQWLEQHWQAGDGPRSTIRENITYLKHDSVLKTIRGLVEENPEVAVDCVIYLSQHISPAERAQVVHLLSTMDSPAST
Assay type: biochemical
Procedure, shortened: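 His-tagged human ACC2 (residues 27–2458) from baculovirus-infected Sf-9 cells was preincubated 1 h in pH 7.4 HEPES-KOH buffer with MgCl2, 6-10 mM potassium citrate, glutathione and BSA. Substrate solution held 1 mM ATP, 0.8 mM acetyl CoA and 25-50 mM bicarbonate. After 1–3 h at room temperature, malonyl CoA/(malonyl+acetyl CoA) was read by negative-mode MALDI-TOF MS; citrate, bicarbonate and time varied by enzyme lot.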
For `CCC(F)(F)c1nc2ccc(Oc3cnc(OC[C@H](C)NC(C)=O)cn3)c(Cl)c2s1` [Compound I-033], the IC50 was 50 nM.
`CCOc1nc2ccc(Oc3cnc(O[C@@H](C)[C@H](C)NC(C)=O)cn3)c(F)c2s1` [Compound I-059] was tested, and the IC50 was 29 nM.
For `CCOc1nc2ccc(Oc3cnc(O[C@H](C)[C@H](C)NC(C)=O)cn3)c(F)c2s1` [Compound I-061], the IC50 was 115 nM.
With `CC(=O)N[C@@H](C)CO[C@H]1C[C@H](COc2ccc3nc(C(C)(F)F)sc3c2F)C1` [Compound I-097] the IC50 was 97 nM.
In the case of `CC(=O)N[C@@H](C)COc1cnc(Oc2ccc3c(c2Cl)OCCN(C(C)C)C3=O)cn1` [Compound I-082], the IC50 is reported as 3800 nM.
In the case of `CCOc1nc2ccc(Oc3cnc(OC[C@H](C)NC(C)=O)cn3)c(F)c2s1` [Compound I-045], the IC50 is reported as 8 nM.
Compound `CCCc1ccc(Oc2ccc(C(=O)C[C@H](C)NC(C)=O)nc2)c(Cl)c1` [Compound I-009] has an IC50 of 1060 nM.
Compound `CCOc1nc2ccc(Oc3cnc(OC[C@H](CO)NC(C)=O)cn3)c(F)c2s1` [Compound I-092] has an IC50 of 89 nM.

Same assay, conditions: Tables 155-159
`CC(=O)N[C@@H](C)CC[C@@H]1CC[C@@H](Oc2nc3cnc(OCC(F)F)c(Cl)c3n2C)CO1` [Compound I-684] was tested, and the IC50 was 6 nM.
With `CC(=O)N[C@@H](C)CO[C@H]1C[C@H](COc2nccc(-c3ccc(F)cc3)c2C)C1` [Compound I-313] the IC50 was 72 nM.
In the case of `CC(=O)N[C@@H](C)CO[C@H]1CC[C@H](Oc2ccc3nc(OC4CCC(F)(F)CC4)n(C)c3n2)CC1` [Compound I-511], the IC50 is reported as 22 nM.
`CC(=O)N[C@@H](C)CO[C@H]1C[C@H](COc2ncnc3c2cc(C)n3CC2CC2)C1` [Compound I-454] showed an IC50 of 87 nM.
In the case of `CC(=O)N[C@@H](C)CO[C@H]1C[C@H](COc2nc3sc(OC(C)C)nc3cc2F)C1` [Compound I-182], the IC50 is reported as 12 nM.
In the case of `CC(=O)N[C@@H](C)CO[C@H]1CC[C@H](Oc2nc3c(Cl)c(Cl)c(OCC(F)F)cc3n2C)CC1` [Compound I-609], the IC50 is reported as 525 nM.
In the case of `CCOc1ncc2nc(O[C@H]3CC[C@H](OC[C@H](C)NC(C)=O)CC3)n(C)c2c1Cl` [Compound I-646], the IC50 is reported as 15 nM.
`CC(=O)N[C@@H](C)CO[C@H]1C[C@H](COc2nccc(OCC(F)F)c2Cl)C1` [Compound I-315] showed an IC50 of 503 nM.
Work on `CC(=O)N[C@@H](C)CO[C@H]1CC[C@H](Oc2ncc3nc(OCC(F)F)sc3c2F)CC1` [Compound I-239] yielded an IC50 of 8 nM.
Work on `CC(=O)N[C@@H](C)CO[C@H]1C[C@H](COc2nc3sc(N4CC(F)C4)nc3cc2F)C1` [Compound I-267] yielded an IC50 of 58 nM.
`CCCc1ccc2nc(O[C@H]3CC[C@H](OC[C@H](C)NC(C)=O)CC3)n(C)c2c1` [Compound I-573] showed an IC50 of 68 nM.
`CCOc1cc(F)c2nc(O[C@H]3CC[C@H](OC[C@H](C)NC(C)=O)CC3)n(C)c2c1F` [Compound I-665] showed an IC50 of 4 nM.
With `C[C@@H](CO[C@H]1CC[C@H](Oc2nc3c(F)cc(OCC(F)F)c(F)c3n2C)CC1)NC(=O)c1cn[nH]c1` [Compound I-656] the IC50 was 39 nM.
Compound `CC(=O)N[C@@H](C)CO[C@H]1CC[C@H](Oc2ncc(-c3ncc(C#N)cn3)cc2C#N)CC1` [Compound I-530] has an IC50 of 196 nM.
For `CC(=O)N[C@@H](C)CO[C@H]1CC[C@H](Oc2cc3sc(OCC4(F)COC4)nc3cn2)CC1` [Compound I-222], the IC50 was 246 nM.
With `CC(=O)N[C@@H](C)CO[C@H]1CC[C@H](Oc2ccc3nc(C(C)C)n(C)c3n2)CC1` [Compound I-513] the IC50 was 260 nM.
`CC(=O)N[C@@H](C)CO[C@H]1CC[C@H](Oc2cc3sc(OC4CC(F)(F)C4)nc3cn2)CC1` [Compound I-219] was tested, and the IC50 was 4 nM.
In the case of `CCSc1ccc2nc(O[C@H]3CC[C@H](OC[C@H](C)NC(C)=O)CC3)n(C)c2c1` [Compound I-577], the IC50 is reported as 62 nM.
With `CC(=O)N[C@@H](C)CO[C@H]1CC[C@H](Oc2ncc3nc(N4CCC4)sc3c2F)CC1` [Compound I-234] the IC50 was 8 nM.
With `COc1cnc(-c2cnc(O[C@H]3CC[C@H](OC[C@H](C)NC(C)=O)CC3)c(F)c2)nc1` [Compound I-528] the IC50 was 61 nM.
Compound `CC(=O)N[C@@H](C)CO[C@H]1C[C@H](COc2ncnc(OCCc3ccccc3)c2Cl)C1` [Compound I-345] has an IC50 of 38 nM.
`CC(=O)N[C@@H](C)CO[C@H]1CC[C@H](Oc2ncc(-c3ncc(F)cn3)cc2F)CC1` [Compound I-542] was tested, and the IC50 was 6 nM.
Work on `CC(=O)N[C@@H](C)CO[C@H]1CC[C@H](Oc2nc3c(Cl)cc(OCC(F)F)c(Cl)c3n2C)CC1` [Compound I-623] yielded an IC50 of 17 nM.
Compound `CC(=O)N[C@@H](C)CO[C@H]1C[C@H](COc2ccc3nc(OCC4CC4)n(C)c3n2)C1` [Compound I-476] has an IC50 of 74 nM.
`CC(=O)N[C@@H](C)CO[C@H]1CC[C@H](Oc2ncc(-c3ncc(C(F)(F)F)cn3)cc2C#N)CC1` [Compound I-546] gave an IC50 of 66 nM.
In the case of `CC(=O)N[C@@H](C)CO[C@H]1CC[C@H](Oc2nc3c(Cl)cc(C4CC4)cc3n2C)CC1` [Compound I-648], the IC50 is reported as 110 nM.
With `CO[C@H]1C[C@@H](Oc2nc3ccc(OC[C@H]4C[C@H](OC[C@H](C)NC(C)=O)C4)nc3s2)C1` [Compound I-281] the IC50 was 41 nM.
`CC(=O)N[C@@H](C)CO[C@H]1CC[C@H](Oc2nc3cnc(C4CC4)c(Cl)c3n2C)CC1` [Compound I-695] was tested, and the IC50 was 96 nM.
Compound `CC(=O)N[C@@H](C)CO[C@H]1CC[C@H](Oc2ccc3nc(CCC4CC4)n(C)c3n2)CC1` [Compound I-514] has an IC50 of 32 nM.
For `CC(=O)N[C@@H](C)CO[C@H]1CC[C@H](Oc2nc3c(F)cc(OC4CN(C(C)=O)C4)c(F)c3n2C)CC1` [Compound I-616], the IC50 was 240 nM.
With `CCOc1nc2ccc(OC[C@H]3C[C@@H](OC[C@H](C)NC(C)=O)C3)nc2s1` [Compound I-216] the IC50 was 8 nM.
`CC(=O)N[C@@H](C)CO[C@H]1C[C@H](COc2nccc3c2CCN3Cc2ccccc2)C1` [Compound I-328] was tested, and the IC50 was 18 nM.
Compound `COc1ccc(-c2ncnc(OC[C@H]3C[C@H](OC[C@H](C)NC(C)=O)C3)c2C)cc1` [Compound I-420] has an IC50 of 447 nM.
`CC(=O)N[C@@H](CC#N)CO[C@H]1CC[C@H](Oc2nc3cnc(OCC(F)F)c(Cl)c3n2C)CC1` [Compound I-730] showed an IC50 of 910 nM.
With `CC(=O)N[C@@H](C)CO[C@H]1C[C@H](COc2c(F)cc3nc(C(C)C)sc3c2Cl)C1` [Compound I-132] the IC50 was 48 nM.
`CC(=O)N[C@@H](C)CO[C@H]1CC[C@H](Oc2ccc3nc(C4(O)CCCC4)sc3c2F)CC1` [Compound I-146] showed an IC50 of 44 nM.
In the case of `CC(=O)N[C@@H](C)CO[C@H]1CC[C@H](Oc2nc3c(F)cc(OCC4CC4)c(F)c3n2C)CC1` [Compound I-626], the IC50 is reported as 6 nM.
`CC(=O)N[C@@H](C)CO[C@H]1C[C@H](COc2ccc3nc(N(C)C)sc3n2)C1` [Compound I-231] showed an IC50 of 183 nM.
Work on `CC(=O)N[C@@H](C)CO[C@H]1C[C@H](COc2ncnc(OCc3nnc(C(F)(F)F)s3)c2Cl)C1` [Compound I-443] yielded an IC50 of 240 nM.
With `CC(=O)N[C@@H](CF)CO[C@H]1CC[C@H](Oc2nc3c(F)cc(OCC(F)F)c(F)c3n2C)CC1` [Compound I-700] the IC50 was 9 nM.
In the case of `CC(=O)N[C@@H](C)CO[C@H]1CC[C@H](Oc2ccc3nc(N4CCOCC4)sc3c2F)CC1` [Compound I-176], the IC50 is reported as 42 nM.
`CC(=O)N[C@@H](C)CO[C@H]1C[C@H](COc2nccc(N3CCCC3)c2F)C1` [Compound I-358] was tested, and the IC50 was 19 nM.
`CC(=O)N[C@@H](C)CO[C@H]1CC[C@H](Oc2nc3c(F)cc(OCC(F)F)cc3n2C)CC1` [Compound I-707] showed an IC50 of 84 nM.
With `CC(=O)N[C@@H](C)CO[C@H]1C[C@@H](COc2ncnc(OCc3ccccn3)c2Cl)C1` [Compound I-436] the IC50 was 4 nM.
Compound `CC(=O)N[C@@H](C)CO[C@H]1CC[C@H](Oc2nc3ccc(OC(F)(F)F)cc3n2C)CC1` [Compound I-572] has an IC50 of 227 nM.
`CC(=O)N[C@@H](C)CO[C@H]1C[C@H](COc2ccc3nc(OCC4CC4(F)F)sc3n2)C1` (stereo partly shown) [Compound I-197] was tested, and the IC50 was 15 nM.
Compound `CC(=O)N[C@@H](C)CO[C@H]1C[C@H](COc2ncnc3c2ccn3CCC2CC2)C1` [Compound I-444] has an IC50 of 51 nM.
`C[C@@H](CO[C@H]1C[C@H](COc2ccc3nc(OCC(F)F)sc3n2)C1)NC(N)=O` [Compound I-205] was tested, and the IC50 was 25 nM.
In the case of `CC(=O)N[C@@H](C)CO[C@H]1C[C@H](COc2ncnc(OCc3ccc(F)cn3)c2Cl)C1` [Compound I-354], the IC50 is reported as 11 nM.
Work on `CC(=O)N[C@@H](C)CO[C@H]1CC[C@H](Oc2ncc(-c3ncc(Cl)cn3)cc2C#N)CC1` [Compound I-535] yielded an IC50 of 30 nM.
Compound `CC(=O)N[C@@H](C)CO[C@H]1CC[C@H](Oc2nc3cc(Br)ccc3s2)CC1` [Compound I-549] has an IC50 of 37 nM.
Compound `CC(=O)N[C@@H](C)CO[C@H]1C[C@H](COc2nccc(N3CCCC3)c2C)C1` [Compound I-378] has an IC50 of 144 nM.
For `CC(=O)N[C@@H](C)CO[C@H]1C[C@](F)(COc2ccc3nc(OC(C)C)sc3n2)C1` [Compound I-299], the IC50 was 26 nM.
With `CC(=O)N[C@@H](C)CO[C@H]1C[C@H](COc2nccc(N3CCCC3)c2Cl)C1` [Compound I-325] the IC50 was 37 nM.
With `CC(=O)N[C@@H](C)CO[C@H]1C[C@H](COc2nccc(C3=CCCC3)c2Cl)C1` [Compound I-335] the IC50 was 18 nM.
In the case of `CC(=O)N[C@@H](C)CO[C@H]1CC[C@H](Oc2nc3cnc(OC(C)C)cc3n2C)CC1` [Compound I-607], the IC50 is reported as 110 nM.
For `CC(=O)N[C@@H](C)CO[C@H]1C[C@H](COc2ccc3nc(C(C)C)sc3c2F)C1` [Compound I-127], the IC50 was 84 nM.
With `CCOc1ccc2nc(O[C@H]3CC[C@H](OC[C@H](C)NC(C)=O)CC3)n(CC)c2c1` [Compound I-579] the IC50 was 334 nM.
For `CC(=O)N[C@@H](C)CO[C@H]1CC[C@H](Oc2ccc3nc(OCC(C)(C)C#N)sc3c2F)CC1` [Compound I-149], the IC50 was 63 nM.
With `CC(=O)N[C@@H](C)CO[C@H]1CC[C@H](Oc2ccc3nc(OCC(C)(C)O)sc3c2F)CC1` [Compound I-129] the IC50 was 139 nM.
With `CC(=O)N[C@@H](C)CC[C@H]1CC[C@H](Oc2nc3cnc(OC4CC4)c(Cl)c3n2C)CC1` [Compound I-636] the IC50 was 4 nM.
`CC(=O)N[C@@H](C)CO[C@H]1CC[C@H](Oc2nc3ccc(Oc4ccncc4)cc3n2C)CC1` [Compound I-594] was tested, and the IC50 was 383 nM.
